Article PMC6153520, “Proteasome inhibition and mechanism of resistance to a synthetic, library-based hexapeptide” (Investigational New Drugs, 2018)
Where a SMILES comes first, the peptide text is derived from it. [ ]: non-standard residue; d: D form. The star is where a group is joined. His(τ-Bzl) = N[C@@H](Cc1cn(Cc2ccccc2)cn1)C(=O)O; Nle = CCCC[C@H](N)C(=O)O; NHBn = c1ccc(CN*)cc1; Bn = c1ccc(C*)cc1; OtBu = CC(C)(C)O*; tBu = CC(C)(C)*

Assays:
proteasome β5 subunit [1] = target: T1, proteasome β5 subunit (Mus musculus, UniProt O55234); experiment: Proteasome affinity labelling in EL4 cells; format: cell-based; conditions: EL4 cells pre-exposed for 2–24 h
T1 construct: Activity probing of constitutive and immunoproteasome β-subunits in EL4 cells; endogenous in cells; host or cells: EL4 mouse thymoma cells
Protocol: Proteasome activity profiling assays were performed as described using a close analog of the BodipyFL probe. Briefly, mouse EL4 thymoma cells were incubated at 37 °C for 2 or 24 h with increasing concentrations of 4A6, followed by a 1 h chase with 500 nM probe. […] Cells were harvested and lysed for 30 min in NP40 lysis buffer (50 mM Tris, pH 7.4, 150 mM NaCl, 1% NP40) at 4°C. The Bradford assay was used to measure protein content. Proteins were denatured by boiling in reducing sample buffer and analyzed by 12% SDS-PAGE using NuPAGE pre-cast gels (Invitrogen). Gels were then scanned for fluorescence emission using a ProXPRESS 2D Proteomic imaging system (Perkin Elmer). Images were analyzed using Totallab analysis software (Nonlinear Dynamics, Newcastle upon Tyne, UK). Sypro staining served as a loading control.

THP1/WT cells [2] = experiment: Western blot, accumulation of ubiquitinated proteins; format: cell-based, human; conditions: 24 h exposure
Protocol: (§1) Western blot analysis to determine protein levels of (i) β1, β2 and β5 proteasome subunits and (ii) the accumulation of ubiquitinated proteins after treatment with 4A6 was performed essentially as described previously. Cells were harvested in the mid-log phase of growth and washed 3 times with ice-cold buffered saline pH 7.4. Total cell lysates of 5 × 10^6 cells were prepared by resuspension in 500 μl lysis buffer containing: 50 mM Tris-HCl (pH 7.6), 5 mM dithiotreitol, 20 μl PIC (Protease Inhibitor Cocktail; 1 tablet/ml H2O), 20% glycerol and 0.5% NP-40. The suspension was sonicated (MSE sonicator, amplitude 7, for 3 × 5 s with 20 s time intervals at 4 °C) and centrifuged in an Eppendorf micro centrifuge (5 min, 12,000 rpm, 4 °C). Protein content of the supernatant was determined by the Bio-Rad protein assay. 20–30 μg of total cell lysates were fractionated on a 10% polyacrylamide gel containing SDS and transferred onto a PVDF membrane. The membranes were pre-incubated overnight at 4 °C in blocking buffer (5% Bio-Rad Blocker in TBS-T; 10 mM Tris-HCl, pH 8.0, 0.15 M NaCl, 0.1% Tween-20) to prevent non-specific antibody binding. After blocking, the membranes were incubated for 1 h at room temperature with primary antibodies for proteasome subunit β1 (1:1000, PW8140), β2 (1:1000, PW8145) and β5 (1:1000, PW8895) or ubiquitin (1:1000, Santa-Cruz, SC-8017). An antibody to α-tubulin was used (1:1000, Santa Cruz, sc-8035) to check and normalize for any loading differences. After 3 washing steps with TBS-T, the membranes were incubated for 1 h with HRP-labelled donkey-anti-rabbit (1:6000, Amersham, UK) or goat-anti-mouse (1:6000, Dako, Glostrup, Denmark) as secondary antibody. Detection of antibody binding was followed by chemoluminescence using Supersignal (Pierce Biotechnology, Rockford, USA) according to the manufacturers’ instructions. […] The signal intensity was determined densitometrically using Quantity One software (Bio-Rad) and was expressed relative to the intensity of the α-tubulin signal.

[3] = system: bortezomib-resistant cells (THP1/BTZ200); experiment: as above; format: cell-based, human; conditions: 24 h, same concentrations as in THP1/WT
Protocol: as §1

THP1/BTZ200 cells = experiment: Apoptosis assay (Annexin-V/7-AAD flow cytometry); format: cell-based, human; conditions: 24 h, 4A6 over 0–25 μM
Protocol: (§2) Induction of apoptosis was analyzed by flow cytometry using APOPTEST™-FITC A700 (VPS Diagnostics, Hoeven, the Netherlands) according to the instructions of the manufacturer. In short, induction of apoptosis was determined after 24 h’ drug exposure. One million cells were harvested and washed 3 times with ice-cold PBS. The cell pellet was incubated for 30 min with 7-Amino-actinomycin D (7-AAD) on ice followed by incubation with Annexin-V according to the instructions of the manufacturer. Annexin-V (early apoptosis) and 7-AAD (late apoptosis) staining was measured by flow cytometry (Beckton & Dickinson, FACScalibur) and analysed using FCSexpress V3 software (Denovo software, Thornhill, Canada).

THP1/WT cells [4] = experiment: Apoptosis assay (Annexin-V/7-AAD flow cytometry); format: cell-based, human; conditions: 24 h exposure
Protocol: as §2

proteasome β1 subunit = experiment: Western blot, proteasome subunit expression; format: cell-based, human; conditions: 0.1–10 μM, 24 h; THP1/WT, THP1/BTZ100, THP1/BTZ (−100)
Protocol: as §1

proteasome β2 subunit = experiment: Western blot, proteasome subunit expression; format: cell-based, human; conditions: 0.1–10 μM, 24 h; THP1/WT, THP1/BTZ100, THP1/BTZ (−100)
Protocol: as §1

proteasome β5 subunit [5] = experiment: Western blot, proteasome subunit expression; format: cell-based, human; conditions: 10 μM 4A6, 24 h; THP1/WT, THP1/BTZ100 and THP1/BTZ (−100); densitometry
Protocol: as §1

[6] = system: P-glycoprotein (Pgp/ABCB1); parameters: method as in PMID 11289130; conditions: ref [32]; cited from earlier work
[7] = system: Multidrug Resistance-associated Protein 1 (MRP1/ABCC1); parameters: method as in PMID 11289130; conditions: ref [32]; cited from earlier work

In the case of `CCCC[C@H](NC(=O)[C@@H](NC(=O)[C@H](Cc1cn(Cc2ccccc2)cn1)NC(=O)[C@@H](NC(C)=O)[C@@H](C)OC(C)(C)C)[C@@H](C)OCc1ccccc1)C(=O)N[C@@H](CCC(=O)OC(C)(C)C)C(=O)NCC(=O)NCc1ccccc1` [4A6, Ac-Thr(tBu)-His(Bzl)-Thr(Bzl)-Nle-Glu(OtBu)-Gly-Bza] (Ac-T(tBu)[His(τ-Bzl)]T(Bn)[Nle]E(OtBu)G-NHBn), the “concentration giving complete inhibition of the β5 subunit” value (proteasome β5 subunit [1]) is reported as > 5 µM, the “accumulation of ubiquitinated proteins” value (THP1/WT cells [2]) is reported as “marked accumulation of ubiquitinated proteins” and the “accumulation of ubiquitinated proteins” value [3] is reported as “did not provoke any accumulation of ubiquitinated proteins”. The induction of apoptosis (THP1/BTZ200 cells) was “none”, the induction of apoptosis (THP1/WT cells [4]) was “efficient induction of apoptosis” and the “effect on expression of the β1 proteasome subunit” value (proteasome β1 subunit) was “No significant effects”. For the same compound, the “effect on expression of the β2 proteasome subunit” value (proteasome β2 subunit) was “No significant effects”, the “increase in β5 subunit induction vs drug-free controls” value (proteasome β5 subunit [5]) was 3–5 fold and the “ability to reverse efflux pump MDR (ABCB1)” value [6] was “lacked the ability to reverse efflux pump MDR”. The “substrate of MDR efflux transporter ABCB1” value [6] was “substrate”, the “ability to reverse efflux pump MDR (ABCC1)” value [7] was “lacked the ability to reverse efflux pump MDR” and the “substrate of MDR efflux transporter ABCC1” value [7] was “substrate”.
